The test system of one data set is MOLM13. Put plainly: MTT cell viability assay, MOLM13. The class given is cell-based, Human. Particulars: MOLM13, 14 days of treatment. The procedure:
(§1) Human leukemia cells were plated at 1×10^5 cells/ml in 24-well plates, treated with 0.25% DMSO or compounds and cultured at 37° C. for 7-14 days. Every four days, the volume corresponding to 1×10^5 cells of DMSO-treated cells was spun down and resuspended in fresh media with fresh compound. At day 0 and each four day interval, 100 μl aliquots of the cell suspension were transferred to 96-well plates in quadruplicates. The quadruplicate samples were incubated for 4 days at 37° C., and then an MTT cell proliferation assay kit (Roche) was used to measure viable cells. Absorbance was read at 570 nm using a PHERAstar (BMG) microplate reader.

The next data set deals with KOPN8. Put plainly: MTT cell viability assay, KOPN8. It is filed as cell-based, Human. Conditions: KOPN8, 14 days of treatment. How it is done:
as §1
On the technique in general: Tetrazolium assays rely on reduction of a dye to a coloured formazan, in cell work by metabolically active cells.

In another data set the test system is MV4;11. The experiment in a line: MTT cell viability assay, MV4;11. The class given is cell-based, Human. Conditions: MV4;11, 14 days of treatment. The procedure: as §1
The test system of a further data set is SEM cells. The experiment in a line: MTT cell viability assay, SEM. The class given is cell-based, Human. Particulars: 14 days of treatment. The procedure:
as §1

The next data set concerns K562 (CML cell line). The experiment in a line: MTT cell viability assay, K562 control cell line. It is filed as cell-based, Human. Particulars: 14 days of treatment. The procedure:
as §1

The next data set concerns MV4;11 cells. Put plainly: Differentiation of MV4;11 cells (Cytospin/Wright-Giemsa staining). It is filed as cell-based, Human. Conditions: 7 days of treatment. How it is done:
Cytospin/Wrigtht-Giemsa Staining
1×10^5 of MV4;11 cells treated with compounds or DMSO were harvested and placed in a Shandon EZ Single Cytofunnel (Thermo Fisher). Samples were centrifuged at 600 rpm for 5 min. The slides were air dried before staining with a Hema-3 kit (Thermo Fisher).

Data set [1] concerns MLL fusion target genes (HOXA genes, MEIS1, MEF2C), MNDA. The experiment in a line: Quantitative RT-PCR of MLL fusion target genes and MNDA. The class given is cell-based. Conditions: dose-dependent manner. How it is done: Total RNA was extracted from cells using the RNeasy mini kit (QIAGEN), and then 100-2000 ng of total RNA was reverse transcribed using the High Capacity cDNA Reverse Transcription Kit (Applied Biosystems) according to the manufacturer's protocol. Real-time PCR was performed using a CFX96 Real-Time PCR Detection System (Biorad). TaqMan Gene Expression Master Mix and TaqMan Gene Expression Assays were purchased from Thermo Fisher. Relative quantification of each gene transcript was carried out using the ΔΔCt method as described in the Biorad Real-Time PCR Applications Guide.

Data set [2] relates to normal human hematopoietic hCD34+ cells. Put plainly: Toxicity to normal hematopoietic hCD34+ cells. The class given is cell-based.
For data set [3], the system named is MV4;11 xenotransplantation mouse models of MLL leukemia. The experiment in a line: MV4;11 xenotransplantation mouse model of MLL leukemia. The class given is in vivo, mice. Particulars: i.p. How it is done: Immunocompromised 8-10 week-old female NSG mice were used for in vivo efficacy studies in accordance with IACUC guidelines. Luciferase expressing human MV4;11 leukemia cells (MV4;11-luc) were engrafted intravenously via tail vein injection (1×10^7 cells/animal). Five days after transplantation mice were randomly assigned to a vehicle control or a compound treatment group (6-7 animals per group). […] Body weight was measured daily, while mean luminescence signal was measured at days 6, 13 and 19 post-transplantation in all mice. […]

Data set [4] addresses T1, ASH1L SET-BAH construct (amino acids 2069-2833) (Homo sapiens, UniProt Q9NR48).
T1 construct: ASH1L SET-BAH construct (amino acids 2069-2833); His tag (implied only by nickel-NTA purification); made in house; host or cells: E. coli BL21(DE3) T1R
The experiment in a line: ASH1L histone methyltransferase (HMT) assay. It is filed as biochemical. Conditions: read-out: IC50 value measured in histone methyltransferase (HMT) assay. The procedure: ASH1L SET protein was expressed as MOCR fusion proteins in E. coli BL21(DE3) T1R cells at 22° C. Transformed cells were lysed in buffer A containing 50 mM Tris (pH 7.5), 500 mM NaCl, 1 mM tris(2-carboxyethyl)phosphine (TCEP), and 20 mM imidazole. Cell debris was pelleted by centrifugation, and the supernatant was loaded on a column packed with nickel-nitrilotriacetic acid beads. The column was washed with buffer A and protein eluted with a 100 mL linear gradient up to buffer A containing 500 mM imidazole. The MOCR tag was cleaved with tobacco etch virus (TEV) protease during overnight dialysis against 50 mM Tris (pH 7.5), 100 mM NaCl, and 1 mM TCEP. Cleaved ASH1L was isolated from MOCR by repeating the nickel column purification and collecting ASH1L in the flow-through and low-imidazole fractions. ASH1L was further purified by gel filtration chromatography using a Superdex-75 column running in buffer B containing 50 mM Tris (pH 7.5), 100 mM NaCl, and 1 mM TCEP. ASH1L SET-PHD and SET-BAH proteins were purified similarly, with the following differences. […]
Chicken mono/dinucleosomes (HMT-35-179), chicken oligo nucleosomes (HMT-35-177), and HeLa nucleosomes (HMT-35-123) were purchased from Reaction Biology. […] The P81 squares were then dried for 1 h, added to 10 mL of Ultima Gold scintillation cocktail (PerkinElmer), and analyzed using a Beckman scintillation counter.

The structures appear in SMILES notation.

With `CC(C)S(=O)(=O)N1CCC(n2cc(-c3cccc(C(N)=S)c3)c3ccc(CNc4nnc(N)s4)cc32)CC1` [Compound 34], the “growth inhibition / proliferation, MTT assay” value in the data set with MOLM13 and in the data set on KOPN8 was “inhibits proliferation” in each case. In addition, the “proliferation, MTT cell viability assay” value with MV4;11 is given as “inhibits proliferation”; in the data set on SEM cells it was “inhibits proliferation”; with K562 (CML cell line) it was “but not control cell line K562”.

With `CC1CN(S(C)(=O)=O)CCC1n1cc(-c2cccc(C(N)=S)c2)c2ccc(N)cc21` (centres unmarked) [Compound 22], the “growth inhibition / proliferation, MTT assay” value with MOLM13 is “growth inhibition”. Besides, the “growth inhibition / proliferation, MTT assay” value in the data set with KOPN8 is on record as “growth inhibition”. In addition, in the data set on MV4;11 cells, the “differentiation in MV4;11 cells” value is “induces differentiation”. In addition, in [1], the “expression level of MNDA differentiation marker” value is “increase the expression level” and the “expression of MLL fusion target genes (HOXA genes, MEIS1, MEF2C)” value is given as “downregulates expression”. Further, the “toxicity to normal human hematopoietic hCD34+ cells” value in data set [2] was “not toxic”.

On to `Cl.NC(=S)c1cccc(-c2cn(C3CCN(S(=O)(=O)C(F)(F)F)CC3)c3cc(CNC(=O)C4CNC4)ccc23)c1` [Compound 59, N-((3-(3-carbamothioylphenyl)-1-(1-((trifluoromethyl)sulfonyl)piperidin-4-yl)-1H-indol-6-yl)methyl)azetidine-3-carboxamide hydrochloride salt], for which, in [3] (7 days of treatment, 40 mg/kg, q.d.), the “leukemia progression, bioluminescence level in mice” value is “slows down leukemia progression”. For the same molecule, the “leukemia progression, flow cytometry of hCD45+ cells in spleen” value in data set [3] (21 days of treatment, 25 mg/kg, b.i.d.) is listed as “inhibits leukemia progression”.

As for `COCCC(=O)Nc1ccc2c(-c3cccc(C(N)=S)c3)cn(C3CCN(S(C)(=O)=O)CC3)c2c1` [Compound 37], the half-maximal inhibitory concentration (IC50) in data set [4] is 750 nM.

For orientation: IC50 means the point on the concentration scale where inhibition reaches its midpoint.

Values taken from patent US10632209B2, “ASH1L inhibitors and methods of treatment therewith” (The Regents of the University of Michigan, priority 2017, dated 2020).
